In patent EP4725956A1, “MODIFIED POLYPEPTIDE AND USE THEREOF IN FIELD OF ANALGESIA” (Nanjing Anji Biotechnology Co., Ltd., priority 2023, dated 2024):
Positions of bridges follow the written chain, without caps; N, C: chain ends. Non-standard residues stand in square brackets, D forms with d. Residues, ends and D or L forms follow the SMILES beside them. Bip = N[C@@H](Cc1ccc(-c2ccccc2)cc1)C(=O)O; Hyp = O=C(O)[C@@H]1C[C@@H](O)CN1; Nle = CCCC[C@H](N)C(=O)O; Orn = NCCC[C@H](N)C(=O)O; Aib = CC(C)(N)C(=O)O

Tests used:
[1] = test system: mouse oxaliplatin acute chemotherapy pain model; experiment: Mouse oxaliplatin chemotherapy pain model, multiple peptides (Example 8); type: in vivo; conditions: single dose 3 mg/kg s.c., 0.5-8 h post-dose, n=3
Experimental: Oxaliplatin was dissolved in 5% glucose solution to a concentration of 1 mg/mL. For model induction, each male C57 mouse (Shanghai Bikai Keyi Biotechnology Co., Ltd.) received a single intraperitoneal injection of oxaliplatin at 10 mg/kg. Mice in the negative control or blank control group received 5% glucose solution. Approximately one week after model induction, mechanical pain thresholds of the mice were measured three times per mouse, and the average value was calculated. Mice were then randomly assigned to groups based on their pain thresholds. Drug administration was carried out according to the dosing schedule shown in Table 7, with a single dose per mouse. Mechanical pain thresholds were measured at 0.5, 1, 2, 4, 6, and 8 h post-dose. […] Table 7 Dosing Scheme for Oxaliplatin Chemotherapy Pain Model in Mice

[2] = Plasma stability of AJ003-40 and AJ003-24 (HPLC, Example 4); type: in vitro ADME; conditions: human plasma; for main peak area: 2 mg/mL
Experimental: Peptides AJ003-40 and AJ003-24 were separately weighed and mixed with human plasma to prepare solutions at 2 mg/mL. 300 µL of peptide-containing plasma was mixed with 300 µL acetonitrile, centrifuged at 4°C and 12,000 rpm for 5 minutes, and the supernatant was filtered through an organic membrane. 200 µL of the filtrate was transferred to an LC vial as the 0 h sample. Peptide-containing plasma was incubated in a 37°C water bath. For AJ003-40, 300 µL of plasma was sampled at 24 h, mixed with 300 µL acetonitrile, centrifuged, filtered, and 200 µL of the filtrate was transferred to an LC vial as the 24 h sample. For AJ003-24, 300 µL of plasma was sampled at 22 h, processed similarly, and 200 µL of the filtrate was transferred to an LC vial as the 22 h sample.

α9 nAChR = molecular target: T1, α9 nAChR (Homo sapiens, UniProt Q9UGM1); experiment: BLI (biolayer interferometry) affinity of peptides to α9 nAChR; type: binding; conditions: NTA sensor, α9 nAChR 5 µg/mL, peptide 1.372-1000 nM in PBS
T1 construct: inferred from capture on NTA sensor
Text: BLI is a label-free technology that converts optical interference signals occurring on the surface of BLI biosensors into real-time response signals. By monitoring the molecular binding process in real time, the system determines association rate constants (ka or kon), dissociation rate constants (kd or koff), and initial binding rates, and calculates affinity (KD) by fitting analysis. Here are the specific procedures: NTA sensors (Sartorius) were placed in a pre-wetting tray, which was then positioned in a black 96-well plate with 200 µL PBS per well. The NTA sensors were pre-wetted for at least 15 minutes. The target protein α9 nAChR was diluted in PBS to 5 µg/mL, with 200 µL added per well. Test peptides were dissolved in PBS and serially diluted threefold, with concentrations from high to low as 1000 nM, 333.3 nM, 111.1 nM, 37.04 nM, 12.35 nM, 4.115 nM, and 1.372 nM, with an additional well with PBS only as a zeroconcentration control. After equilibrating the instrument baseline, the NTA sensor was used to immobilize the target protein α9 nAChR. Once immobilization was complete, the baseline was re-equilibrated, followed by a 5-minute association and a 5-minute dissociation phase. Affinity measurements of the test peptides were conducted sequentially using the above procedure. The procedure for measuring peptide affinity to α7 nAChR was similar, except that the α7 nAChR concentration was 20 µg/mL. Tables 2 and 3 show the BLI-determined affinities of alanine-scan peptide analogs with target proteins, which identified sites on the parent peptide suitable for modification. Subsequently, single-site non-natural amino acid substituted peptides were evaluated by BLI for target protein affinity. Finally, multi-site combinatorial modified peptides were measured for affinity by BLI, leading to the selection of high-affinity peptides for further screen and drug development potential. Table 2 Test Results for Affinity of Modified Peptides to α9 nAChR

T1 sequence (Q9UGM1 23-479): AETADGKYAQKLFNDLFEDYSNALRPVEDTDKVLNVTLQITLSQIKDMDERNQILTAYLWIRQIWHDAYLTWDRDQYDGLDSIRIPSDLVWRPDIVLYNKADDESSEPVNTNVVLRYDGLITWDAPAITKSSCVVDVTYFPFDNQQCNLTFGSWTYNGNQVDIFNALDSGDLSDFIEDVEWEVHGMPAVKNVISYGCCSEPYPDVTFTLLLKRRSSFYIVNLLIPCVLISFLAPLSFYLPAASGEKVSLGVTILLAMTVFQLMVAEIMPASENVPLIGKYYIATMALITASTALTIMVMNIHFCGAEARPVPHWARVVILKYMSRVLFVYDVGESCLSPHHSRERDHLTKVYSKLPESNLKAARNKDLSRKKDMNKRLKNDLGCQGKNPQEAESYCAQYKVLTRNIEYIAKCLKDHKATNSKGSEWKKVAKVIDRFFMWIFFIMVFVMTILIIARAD

In the case of CCCC[C@H](NC(=O)[C@@H](NC(=O)[C@H]1CSSC[C@H](NC(=O)[C@H](CO)NC(=O)CN)C(=O)N[C@@H](CO)C(=O)N[C@H]([C@H](C)O)C(=O)N2C[C@H](O)C[C@H]2C(=O)N2C[C@H](O)C[C@H]2C(=O)NC(C)(C)C(=O)N1)C(C)C)C(=O)N[C@@H](Cc1ccc(-c2ccccc2)cc1)C(=O)N[C@@H](CCCN)C(N)=O [AJ003-36, GSCS-(D-Thr)-Hyp-Hyp-Aib-(D-Cys)-V-Nle-Bip-Orn-NH2 (3,9 disulfide bond)] (H-GSCS[dT][Hyp][Hyp][Aib][dC]V[Nle][Bip][Orn]-NH2; disulfide 3-9), the “analgesic activity against oxaliplatin-induced chemotherapy pain (mechanical pain threshold compared with the model group)” value [1] is reported as “effective analgesic activity”.

CCCC[C@H](NC(=O)[C@@H](NC(=O)[C@H]1CSSC[C@H](NC(=O)[C@H](CO)NC(=O)CN)C(=O)N[C@@H](CO)C(=O)N[C@H]([C@H](C)O)C(=O)N2C[C@H](O)C[C@H]2C(=O)N2C[C@H](O)C[C@H]2C(=O)N[C@@H](CO)C(=O)N1)C(C)C)C(=O)N[C@@H](Cc1c[nH]c2ccccc12)C(=O)N[C@@H](CCCN)C(N)=O [AJ003-40, GSCS-(D-Thr)-Hyp-Hyp-S-(D-Cys)-V-Nle-W-Orn-NH2 (3,9 disulfide bond)] (H-GSCS[dT][Hyp][Hyp]S[dC]V[Nle]W[Orn]-NH2; disulfide 3-9) gave a main peak area ([2]; 0 h) of 15149.38, a main peak area ([2]; 37°C, 24 h) of 11829.51 and a metabolised at 24 h, 2 mg/mL ([2]; 37°C, 24 h, read-out: degradation) of 21.9%.

With CC(C)C[C@H](NC(=O)[C@@H](NC(=O)[C@H]1CSSC[C@H](NC(=O)[C@H](CO)NC(=O)CN)C(=O)N[C@@H](CO)C(=O)N[C@@H]([C@@H](C)O)C(=O)N2CCC[C@H]2C(=O)N2CCC[C@H]2C(=O)N[C@@H](CO)C(=O)N1)C(C)C)C(=O)N[C@@H](Cc1ccc(O)cc1)C(=O)N[C@@H](CO)C(=O)O [AJ003, GSCSTPPS-(D-Cys)-VLYS (disulfide bond between positions 3 and 9)] (H-GSCSTPPS[dC]VLYS-OH; disulfide 3-9) the Kd (α9 nAChR) was 4.48 nM.
